Data as given in article PMC8382911 (Molecular Biology and Evolution, 2021).
Values joined by “and” are separate entries in the source; they are usually repeats but may differ in a detail not shown here. Identical values can stand only once.

How the values were obtained:
[1] = target: T1, H. mari MalDH (Haloarcula marismortui, UniProt Q07841); experiment: NADH oxidation at […] nm, OAA concentration profile; assay type: biochemical; settings: 3.8 M KCl, 50 mM Tris-HCl pH 7, 25 C, 0.2 mM NADH; no inhibition by excess substrate
T1 construct: gene mdh; tetramer about 130 kDa
T1 sequence (Q07841 1-304): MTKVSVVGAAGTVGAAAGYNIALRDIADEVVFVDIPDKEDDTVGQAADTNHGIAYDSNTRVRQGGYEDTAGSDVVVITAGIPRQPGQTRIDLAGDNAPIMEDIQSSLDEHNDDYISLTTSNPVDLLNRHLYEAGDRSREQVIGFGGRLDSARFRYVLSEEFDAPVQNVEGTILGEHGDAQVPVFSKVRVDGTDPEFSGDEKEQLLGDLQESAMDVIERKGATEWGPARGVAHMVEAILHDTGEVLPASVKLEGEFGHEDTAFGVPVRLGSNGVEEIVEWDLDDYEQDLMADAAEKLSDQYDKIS

[2] = target: T2, Anc88 MalDH (synthetic construct, UniProt Z9B5L9LSO7); experiment: NADH oxidation at […] nm, OAA concentration profile; assay type: biochemical; settings: 3.8 M KCl, 50 mM Tris-HCl pH 7, 25 C, 0.2 mM NADH; no inhibition by excess substrate
T2 sequence (Z9B5L9LSO7 1-304): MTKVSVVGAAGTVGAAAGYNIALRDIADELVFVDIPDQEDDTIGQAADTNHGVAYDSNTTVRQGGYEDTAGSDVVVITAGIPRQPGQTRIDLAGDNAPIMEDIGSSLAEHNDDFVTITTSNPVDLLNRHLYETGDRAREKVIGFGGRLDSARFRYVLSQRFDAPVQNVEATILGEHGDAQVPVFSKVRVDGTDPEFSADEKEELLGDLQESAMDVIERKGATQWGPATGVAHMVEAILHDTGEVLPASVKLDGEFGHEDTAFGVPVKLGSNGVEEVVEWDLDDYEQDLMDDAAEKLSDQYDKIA

[3] = tested on: Anc78 MalDH (LCAHa) (synthetic construct); experiment: NADH oxidation at […] nm, OAA concentration profile; assay type: biochemical; settings: 3.8 M KCl, 50 mM Tris-HCl pH 7, 25 C, 0.2 mM NADH; inhibited by excess substrate
[4] = target: T3, N. maga MalDH (Natrialba magadii, UniProt D3SVD7); experiment: NADH oxidation at […] nm, OAA concentration profile; assay type: biochemical; settings: 3.8 M KCl, 50 mM Tris-HCl pH 7, 25 C, 0.2 mM NADH; no inhibition by excess substrate
T3 construct: gene mdh; tetrameric MalDH family
T3 sequence (D3SVD7 1-304): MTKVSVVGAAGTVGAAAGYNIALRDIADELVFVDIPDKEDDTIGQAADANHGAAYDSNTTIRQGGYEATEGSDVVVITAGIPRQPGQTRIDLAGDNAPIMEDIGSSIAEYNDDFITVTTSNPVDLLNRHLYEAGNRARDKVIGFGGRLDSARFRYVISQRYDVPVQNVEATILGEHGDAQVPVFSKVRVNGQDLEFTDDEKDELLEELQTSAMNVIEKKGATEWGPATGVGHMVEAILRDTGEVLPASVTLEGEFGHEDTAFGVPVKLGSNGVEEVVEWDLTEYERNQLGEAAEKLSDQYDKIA

[5] = target: T4, Anc80 MalDH (synthetic construct, UniProt Z9KM54M7L8); experiment: NADH oxidation at […] nm, OAA concentration profile; assay type: biochemical; settings: 3.8 M KCl, 50 mM Tris-HCl pH 7, 25 C, 0.2 mM NADH; inhibited by excess substrate
T4 construct: tetramer
T4 sequence (Z9KM54M7L8 1-304): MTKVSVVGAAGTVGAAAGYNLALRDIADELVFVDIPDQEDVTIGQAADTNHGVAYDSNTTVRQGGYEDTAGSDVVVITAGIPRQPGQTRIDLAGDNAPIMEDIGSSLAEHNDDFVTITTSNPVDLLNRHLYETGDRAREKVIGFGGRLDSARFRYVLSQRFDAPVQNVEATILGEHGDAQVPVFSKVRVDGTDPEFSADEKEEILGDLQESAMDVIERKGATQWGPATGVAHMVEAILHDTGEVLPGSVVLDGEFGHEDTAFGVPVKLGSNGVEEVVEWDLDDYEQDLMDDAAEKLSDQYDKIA

[6] = target: the molecule itself; experiment: AUC; sedimentation velocity, 20 °C, 0.1 mg/ml, 50 mM Tris pH 7.0, 1.0 M KCl
[7] = target: the molecule itself; experiment: AUC; sedimentation velocity, 20 °C, 0.1 mg/ml, 50 mM Tris pH 7.0, 0.1 M KCl + 0.05 M MgCl2
[8] = target: the molecule itself; experiment: AUC; sedimentation velocity, 20 °C, 0.1 mg/ml, 50 mM Tris pH 7.0, 0.2 M KF, after 24 h incubation

Molecule | NADH oxidation at 340 nm, OAA concentration profile [1] | NADH oxidation at 340 nm, OAA concentration profile [2] | NADH oxidation at 340 nm, OAA concentration profile [3] | NADH oxidation at 340 nm, OAA concentration profile [4] | NADH oxidation at 340 nm, OAA concentration profile [5] | stoichiometry N [6] | stoichiometry N [7] | stoichiometry N [8]
O=C(O)CC(=O)C(=O)O [oxaloacetate] | H. mari MalDH is not sensitive to inhibition by high concentration of OAA | (Anc88), the inhibition by high concentration of OAA is abolished (fig. 7C) | Anc78 and Anc80 MalDHs show a typical phenomenon of inhibition by an excess of substrate | the inhibition by high concentration of OAA is abolished (fig. 7C) | Anc78 and Anc80 MalDHs show a typical phenomenon of inhibition by an excess of substrate |  |  | 
Haloferax volcanii malate dehydrogenase (enzyme, UniProt Q9P9L2 1-304, looked up, malate dehydrogenase (MalDH) of Haloferax volcanii; S6-S8; Tetramer in molar KCl; the oligomeric state depends on salt type and concentration (monomer in 0.2 M KCl); also called H. volc MalDH; MalDH of H. volcanii) MTKVSVIGAAGTVGAAAGYNLALRDVCDELVFVDIPKMEDKTVGQAADTNHGIAYDSNTVVTQGGYEDTAGSDVVVITAGIPRQPGQTRIDLAGDNAPIMDDIGSSLAEYNDDFVSITTSNPVDLLNRHLYETGDRDRHKVIGFGGRLDSARFRYVLSQRFDVPVKNVDATILGEHGDAQVPVFSKVRVDGNDPAFSADEKEEILGDLQESAMDVIERKGATQWGPATGVAHMVEAVLHDTGEVLPGSLVLDGEFGYEDTAFGVPVKLGSNGIEEVVEWDLDDYEADLMDDAAEKLRDQYDEIA |  |  |  |  |  | 4 | 4 | 4 and 2
